Experimental findings from US20240228438A1, “SOLID FORMS OF SALTS OF 4-[5-[(3S)-3-AMINOPYRROLIDINE-1-CARBONYL]-2-[2-FLUORO-4-(2- HYDROXY-2-ETHYLPROPYL)PHENYL]PHENYL]-2-FLUORO-BENZONITRILE” (Astex Pharmaceuticals, Inc., priority 2021, published 2024) are described below.

Structures are written as SMILES. Counter-ions that a name gives are not always drawn.

Data set [1] is described as follows: Stability testing: water absorption of salt forms at 40° C. and 75% RH for five days (KF). Type of data set: physicochemical. To be noted: for Initial KF: water content before exposure; for KF water content after 5 days at 40° C./75% RH: open vial covered with Kim wipe. As to the method: The stability of different salt forms was tested. The salts were placed in 20-mL scintillation vials and covered with Kim wipe, and the resulting vials were exposed to 40° C. and 75% RH (relative humidity) for five days. The samples were analyzed for water absorption.

The nature of data set [2]: Aqueous solubility of the salt form (overall assessment). To be noted: in words. Type of data set: physicochemical.

As to `CC(C)(O)Cc1ccc(-c2ccc(C(=O)N3CC[C@H](N)C3)cc2-c2ccc(C#N)c(F)c2)c(F)c1` [esylate Form IVA, 4-[5-[(3S)-3-aminopyrrolidine-1-carbonyl]-2-[2-fluoro-4-(2-hydroxy-2-methylpropyl)phenyl]phenyl]-2-fluoro-benzonitrile esylate], the “Initial KF” value in data set [1] came to 0.76%.

As to `CC(C)(O)Cc1ccc(-c2ccc(C(=O)N3CC[C@H](N)C3)cc2-c2ccc(C#N)c(F)c2)c(F)c1` [mono-oxalate (from EtOH) Form II, 4-[5-[(3S)-3-aminopyrrolidine-1-carbonyl]-2-[2-fluoro-4-(2-hydroxy-2-methylpropyl)phenyl]phenyl]-2-fluoro-benzonitrile mono-oxalate], the aqueous solubility entry in data set [2] was “good aqueous solubility”. Moreover, the “KF water content after 5 days at 40° C./75% RH” value in data set [1] (five days, mono-oxalate) is 4.46%. Further, in data set [1] (overall assessment, in words), the hygroscopicity entry is recorded as “slightly hygroscopic”. In addition, in data set [1] (mono-oxalate), the “Initial KF” value worked out at 1.06%.

For `CC(C)(O)Cc1ccc(-c2ccc(C(=O)N3CC[C@H](N)C3)cc2-c2ccc(C#N)c(F)c2)c(F)c1` [mesylate Form IIIA, 4-[5-[(3S)-3-aminopyrrolidine-1-carbonyl]-2-[2-fluoro-4-(2-hydroxy-2-methylpropyl)phenyl]phenyl]-2-fluoro-benzonitrile mesylate], the “Initial KF” value in data set [1] (mesylate) is 2.55%.

Turning to `CC(C)(O)Cc1ccc(-c2ccc(C(=O)N3CC[C@H](N)C3)cc2-c2ccc(C#N)c(F)c2)c(F)c1` [maleate Form V, 4-[5-[(3S)-3-aminopyrrolidine-1-carbonyl]-2-[2-fluoro-4-(2-hydroxy-2-methylpropyl)phenyl]phenyl]-2-fluoro-benzonitrile maleate], the “Initial KF” value in data set [1] (maleate) is 1.08%.

As for `CC(C)(O)Cc1ccc(-c2ccc(C(=O)N3CC[C@H](N)C3)cc2-c2ccc(C#N)c(F)c2)c(F)c1` [mono-fumarate Form VI], the “moisture take-up under the tested conditions” value in data set [1] (40° C./75% RH, five days, result in words) is listed as “did not take-up moisture”. The “KF water content after 5 days at 40° C./75% RH” value in data set [1] (five days) came out at 0.63%. For the same compound, the “Initial KF” value in data set [1] worked out at 0.61%.

As for `CC(C)(O)Cc1ccc(-c2ccc(C(=O)N3CC[C@H](N)C3)cc2-c2ccc(C#N)c(F)c2)c(F)c1` [mono-oxalate salt (from IPA)], the “KF water content after 5 days at 40° C./75% RH” value in data set [1] (five days) stood at 4.99%. In addition, in data set [1], the “Initial KF” value is on record as 2.66%.

For `CC(C)(O)Cc1ccc(-c2ccc(C(=O)N3CC[C@H](N)C3)cc2-c2ccc(C#N)c(F)c2)c(F)c1` [hemi-fumarate Form I, 4-[5-[(3S)-3-aminopyrrolidine-1-carbonyl]-2-[2-fluoro-4-(2-hydroxy-2-methylpropyl)phenyl]phenyl]-2-fluoro-benzonitrile hemi fumarate], in data set [1] (five days), the “KF water content after 5 days at 40° C./75% RH” value amounted to 1.57%. In data set [1] (overall assessment, in words), the hygroscopicity entry is “slightly hygroscopic” and the residual water result was “low residual water”. In addition, the “Initial KF” value in data set [1] is 0.69%.
